How the values were obtained:
Assay type in all cases: cell-based
HIV-1NL4-3 [1] = assay: HIV-1 infectivity in TZM-bl cells (F-Luc); conditions: Human immunodeficiency virus 1, TZM-bl, 48 h, Table S1, WT virus, TZM-bl, fivefold serial dilutions, MOI 1, 48 h
Description: The TZM-bl cells (also referred to as JC53BL-13) expressing human CD4, CXCR4, and CCR5 carrying the F-Luc and lacZ genes downstream of the HIV-1 LTR promoter ([60]) were used to determine the inhibitory effect of the compounds on HIV-1 infection, as previously described ([11], [12], [61]). In brief, 1 × 10^4 cells were cultured in 96-well plates for 24 h and subsequently treated with compounds at the indicated concentrations. Without replacement of the culture medium, the cells were subsequently infected with the HIV-1NL4-3 wild-type or ARV-resistant HIV-1 strains at an MOI of 1 to determine the exact inhibitory effect of compounds on a single-round infection. After 48 h, the inhibitory effect of the compounds was determined using a Bright Glo luciferase assay kit (Promega) or β-Galactosidase Enzyme Assay kit (Promega). The infectivity data were presented as a percentage relative to the dimethyl sulfoxide (DMSO) control (vehicle). Cell viability was determined using the resazurin-based PrestoBlue Cell Viability Reagent (Thermo Fisher Scientific, Waltham, MA, USA) following the manufacturer’s instructions.

[2] = test system: NRTI-resistant HIV-1 strain 7396; assay: microbe, parasite or virus in culture; conditions: Human immunodeficiency virus 1, TZM-bl
Description: (§1) Fig 7 (A–C) TZM-bl cells (1 × 10^4 cells/well) cultured in a 96-well plate were treated with fivefold serial dilutions of the indicated compound or ARV for 1 h before infection with the HIV-1NL4-3 or ARV-resistant HIV-1 strains at an MOI of 1, respectively. At 48 h after infection, the EC50 values were determined using an F-Luc activity. The symbols represent the fold-change values of EC50 against each mutant virus relative to the wild-type (WT) virus. (D) PBMCs (5 × 10^4 cells/well) were infected with the HIV-1NL4-3 and PIs-resistant HIV-1 strain at an MOI of 0.1, respectively. Subsequently, the PBMCs were treated with 10-fold serial dilutions of the indicated compounds or PI. At 3 days after infection, the EC50 values on the viral replication were determined using a p24 […] assay kit. (E) The inhibitory kinetics for the WT and ARV-resistant viruses. TZM-bl cells infected with WT or ARV-resistant viruses were cultured upon fivefold serial dilutions of each compound for 2 days and the infectivity was determined using an F-Luc activity.
(§2) The Tzm-bl-derived dual Tat reporter; TZM-bl/Tat/Rluc (bl-DTR) cells were established from TZM-bl cells using two Dox-inducible lentiviral expression cassettes cloned with Flag-tagged Tat86 and the R-Luc gene, as described in our previous study ([11]). TZM-bl, A3.01, J1.1, and J-Lat 6.3 cells as well as the HIV-1 molecular clone pNL4-3, pNL(AD8), ARV-resistant HIV-1 strains, and HIV-1NL43-IRES-eGFP (pBR43IeG-nef^+, gifted by Dr. Frank Kirchhoff) ([52]) were provided by the National Institute of Health HIV Reagent Program (NIH, Bethesda, MD, USA). HeLa (CCL-2) and 293T (CRL-3216) cell lines were purchased from the American Type Culture Collection (ATCC, Manassas, VA, USA). The bl-DTR, TZM-bl, HeLa, and 293T cells were cultured in Dulbecco’s modified Eagle’s medium supplemented with 1% penicillin–streptomycin and 10% (vol/vol) heat-inactivated fetal bovine serum (all from Gibco-BRL, Gaithersburg, MD, USA), and 1 µg/mL of puromycin and 200 µg/mL of zeocin were additionally supplemented for the bl-DTR cells. PBMCs were purchased from AllCells (Alameda, CA, USA) and cultured as previously described ([12]). The information on ARV-resistant HIV-1 strains was described in previous reports as follows: NNRTI-resistant 12241 and 12243 ([53]); NRTI-resistant 7396, 7406, and 7407 ([54]); INSTI-resistant 11847 and 11849 ([55], [56]); and PI-resistant 11800 and 11803 ([57]). Each molecular HIV-1 clone was transfected to 293T cells, as previously described ([58]), to obtain infectious HIV-1 particles. Virus-containing cell culture supernatants were collected 3 days after transfection, and filtered through a 0.45-µm membrane filter (Millipore Sigma, Burlington, MA, USA) to remove cell debris. The viral titration was performed as described previously ([59]) with some minor modifications. In brief, 1 × 10^4 TZM-bl cells seeded in 96-well plates were infected with 200 µL of virus-containing medium diluted serially twofold. The incubation was for 2 days and the experiment was performed in triplicate; the infection time minimized the virus spread ([59]). The titration of the infectious viral particles was performed with a ß-Gal staining assay using the ßeta-Galactosidase Staining Kit (Mirus Bio, Madison, WI, USA) following the manufacturer’s protocols. In brief, the infected cells were washed with phosphate-buffered saline (PBS) and fixed using a Cell Fixative Working solution. The cells were washed with PBS and stained using the Cell Staining Working Solution containing X-gal. The infected blue-colored cells were counted under a microscope (100× magnification). The infectious virus titer was determined as a mean value of blue-colored cells count × dilution factor and used for determining the multiplicity of infection (MOI) in each infection experiment.

[3] = test system: NRTI-resistant HIV-1 strain 7406; assay: microbe, parasite or virus in culture; conditions: Human immunodeficiency virus 1, TZM-bl
Description: as §1, §2

[4] = test system: NRTI-resistant HIV-1 strain 7407; assay: microbe, parasite or virus in culture; conditions: Human immunodeficiency virus 1, TZM-bl
Description: as §1, §2

HIV-1NL4-3 [5] = assay: HIV-1 replication in PBMCs (p24 […]); conditions: Human immunodeficiency virus 1, PBMC, Table S1, WT virus, 10-fold serial dilution
Description: (§3) The p24 level from the cell supernatant was subsequently determined using a p24 […] kit (PerkinElmer). In parallel, the cell viability was determined without viral infection because of the viral cytopathic effect. […] In parallel, cell viability was determined. The data (A and B) are presented as the mean ± SD (n = 3). (C) PBMCs (4 × 10^5) infected with HIV-AD8 at an MOI of 0.1 were treated with 1.5 µM of the compounds or ARVs for 3 days. The levels of p24 and cell viability were subsequently determined. (D) J1.1 cells were cultured with the compounds ([…]) under 50 ng/mL phorbol myristate acetate (PMA) treatment for 2 days. The level of p24 was subsequently determined. (E) J-Lat 6.3 cells were treated with the compounds (1.5 µM) under 1 µg/mL of PMA for 2 days. The GFP-positive cell population was analyzed using flow cytometry. The data are represented as a value relative to the DMSO-treated vehicle (D) and a percent of the GFP^+ cell population (E) as mean ± SD (n = 3).
(§4) The inhibitory effects of the compounds on viral replication were determined with some minor modifications, as previously described ([12], [62]). […] PBMCs (4 × 10^5) pre-activated with PHA-M for 3 days were washed with fresh media to remove excess PHA-M and subsequently infected with HIV-1NL4-3 or HIV-1AD8 or PIs-resistant HIV-1 strains as A3.01 infection. After infection, the infectious media were replaced with fresh media supplemented with international 10 units (IU)/mL of IL-2 and the indicated compounds. At 72 h after infection, the inhibitory effect of the compounds on viral replication was determined by measuring the p24 amount, an HIV capsid protein, using an HIV-1 p24 […] kit (PerkinElmer, Waltham, MA, USA). Cell viability was determined as described above. The inhibitory effects on provirus reversing in J1.1 and J-Lat 6.3 cells were determined as previously described ([12], [41], [63]) with some minor modifications. Briefly, 5 × 10^4 persistently HIV-1-infected J1.1 or J-Lat 6.3 cells were cultured in either the presence or absence of the compounds at a final concentration of 1.5 µM and treated with PMA (50 ng/mL for J1.1 cells, 1 µg/mL for J-Lat 6.3 cells). Two days after treatment, the levels of viral production were determined using p24 […] for J1.1 cells and flow cytometry analysis for GFP-expressing J-Lat 6.3 cells.

[6] = test system: PI-resistant HIV-1 strain 11800; assay: microbe, parasite or virus in culture; conditions: Human immunodeficiency virus 1, PBMC
Excerpt: as §2
(§5) The inhibitory effects of the compounds on viral replication were determined with some minor modifications, as previously described ([12], [62]). […] PBMCs (4 × 10^5) pre-activated with PHA-M for 3 days were washed with fresh media to remove excess PHA-M and subsequently infected with HIV-1NL4-3 or HIV-1AD8 or PIs-resistant HIV-1 strains as A3.01 infection. After infection, the infectious media were replaced with fresh media supplemented with international 10 units (IU)/mL of IL-2 and the indicated compounds. At 72 h after infection, the inhibitory effect of the compounds on viral replication was determined by measuring the p24 amount, an HIV capsid protein, using an HIV-1 p24 […] kit (PerkinElmer, Waltham, MA, USA). Cell viability was determined as described above. The inhibitory effects on provirus reversing in J1.1 and J-Lat 6.3 cells were determined as previously described ([12], [41], [63]) with some minor modifications.

[7] = test system: PI-resistant HIV-1 strain 11803; assay: microbe, parasite or virus in culture; conditions: Human immunodeficiency virus 1, PBMC
Excerpt: as §2, §5

[8] = Cell viability of TZM-bl cells (PrestoBlue); conditions: human; TZM-bl cells, absence of HIV-1 infection; mean ± SD; read-out: CC50
[9] = test system: HIV-1NL4-3 IRES-eGFP-nef+; assay: eGFP-encoding HIV-1 infection of TZM-bl cells; conditions: 9, 10, 13 1.5 μM, 20, 21, 22 4 μM, seliciclib 10 µM, triptolide 5 nM, DTG 2 nM, EFV 2 nM, 2 days
Description: Fig 4 (A) Comparison of the chemical structures between prominent derivatives (9, 10, and 13) and non-functional derivatives (20, 21 and 22). (B) bl-DTR cells were treated with serial dilutions of each compound upon Dox for 24 h. The activities of F-Luc and R-Luc were determined using the Dual-Glo -Luciferase assay system. (C) TZM-bl cells were infected with the HIV-1NL4-3 strain at an MOI of 1 upon treatment of compounds. At 48 h after infection, the viral infectivity and cell viability were determined as described above (Fig. 1). (D) TZM-bl cells were infected with HIV-1NL4-3 IRES-eGFP virus along with the compound treatment. Two days later, GFP-expressing cells were observed by fluorescence microscopy (100× magnification). […] At 48 h after infection, the β-gal activity indicating viral infectivity was determined using the β-gal Enzyme Assay kit. F-Luc activity and cell viability were determined as described above (Fig. 4C). (C and E) The dose-response curves show the relative activity compared with that of the DMSO vehicle (mean ± SD; n = 3).

[10] = Cell viability of A3.01 cells; conditions: human; A3.01 cells, absence of HIV-1 infection; mean ± SD; read-out: CC50
Description: as §3, §4

Cell viability of PBMCs = conditions: human; PBMCs, absence of HIV-1 infection; mean ± SD; read-out: CC50
Description: as §3, §4

HIV-1NL4-3 [11] = assay: Time-of-addition assay in TZM-bl cells; conditions: HIV-1NL4-3 MOI 1, 9 and 13 1.5 μM, T-20 1 µM, triptolide 5 nM, ARVs 1 µM, F-Luc at 54 h
Description: Fig 5 (A) Time-of-addition assay. […] Subsequently, the cells were treated with the compounds at the indicated time points (0, 1, 2, 4, 6, 8, 10, 12, 24, 30, 36, 42, and 48 h) after HIV-1 infection. The final concentrations of compounds are described in Materials and Methods. Viral activity according to the timing of drug addition was measured as F-Luc activity at 54 h after infection. The relative activities are represented as the mean ± SD (n = 3) compared with the activity observed 54 h post-infection. The relative time frames associated with each HIV-1 infection step are defined based on the time frame of susceptibility to the drug that blocks that particular infection step. […] At 16 h after infection, the viral reverse transcription (RT) product (viral cDNA) level was determined by quantitative real-time PCR (RT-qPCR) using gag and 18S rRNA primer sets and represented as the mean ± SD (n = 3) normalized against the amount of the 18S rRNA compared with the DMSO control. **P < 0.01 compared with the vehicle (DMSO). (C) An in vitro integrase (IN) assay was performed with 10 µM of the indicated compounds following the manufacturer’s protocol. **P < 0.01 compared with vehicle (DMSO). (D) A3.01 cells were infected with HIV-1 upon treatment with the indicated compounds (5 µM) and ARVs (EFV and DTG) as the experimental controls. At 40 h after infection, cellular chromosomal DNA was purified, and the integrated proviral DNA was detected through nested Alu-PCR amplification.
A time-of-addition assay was performed as previously described ([25]) with minor modifications. […] Reference drug and test compounds were subsequently added at the indicated time (0, 1, 2, 4, 6, 8, 10, 12, 24, 30, 36, 42, and 48 h after infection). Final concentrations were as follows: compounds 9 and 13 (1.5 μM), T-20 (1 µM), Triptolide (5 nM), and ARVs (AZT, EFV, DTG, RAL) (1 µM). The viral activity according to the timing of drug addition was measured using a Bright Glo luciferase assay kit (Promega). Virus activity curves present a % activity relative to the activity observed at 54 h after infection, and the data are presented as the mean ± standard deviation (SD) (n = 3). The relative time frame associated with each HIV-1 infection step was defined based on the sensitivity to each drug that blocks a particular infection step.

Molecule | EC50 (HIV-1NL4-3 [1]; read-out: EC50) [µM] | EC50 [2] [µM] | EC50 [3] [µM] | EC50 [4] [µM] | time of administration after infection at which effectiveness began to decrease / was lost (HIV-1NL4-3 [11]) [h] | also measured
Nc1nc(NC2CC2)c2ncn([C@H]3C=C[C@@H](CO)C3)c2n1 [ABC, abacavir] | 12.2 ± 7.48 | 22.4 ± 0.39 | > 100 | > 100 |  | 
CC(C)CN(C[C@@H](O)[C@H](Cc1ccccc1)NC(=O)O[C@H]1CO[C@H]2OCC[C@H]21)S(=O)(=O)c1ccc(N)cc1 [DRV, darunavir] |  |  |  |  |  | EC50 (HIV-1NL4-3 [5]): < 0.001 µM; EC50 [6]: 0.15 ± 0.02 µM; EC50 [7]: 0.03 ± 0.01 µM
CC[C@H](CO)Nc1nc(NCc2ccccc2)c2ncn(C(C)C)c2n1 [seliciclib, reference compound] |  |  |  |  |  | CC50 at 48 h [8]: 39.2 ± 4.09 µM; inhibition of viral-expressed eGFP signal [9]: remarkably inhibited; CC50 at 3 days [10]: 27 ± 1.12 µM; CC50 at 3 days (Cell viability of PBMCs): 21.4 ± 2.1 µM
Nc1ccn([C@@H]2CS[C@H](CO)O2)c(=O)n1 [Compound 3TC, lamivudine] |  | 3.64 ± 1.37 | > 100 | > 100 |  | EC50 (HIV-1NL4-3 [1]): 1.23 ± 0.22 µM
enfuvirtide [Compound T-20] |  |  |  |  | 1 | 
Cc1cn([C@H]2C[C@H](N=[N+]=[N-])[C@@H](CO)O2)c(=O)[nH]c1=O [AZT, zidovudine] | 0.11 ± 0.01 | 16.4 ± 1.37 | 73.12 ± 0.43 | > 100 | 6 | 

Source: publication PMC11459959, “Discovery of new acetamide derivatives of 5-indole-1,3,4-oxadiazol-2-thiol as inhibitors of HIV-1 Tat-mediated viral transcription” (Antimicrobial Agents and Chemotherapy, 2024)
